Reference: PubChem BioAssay (NCI)
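Test compounds were applied to cells in 96-well plates for 48 hours at 5 doses. Abbreviation: GI50, concentration required for 50% inhibition of growth. The concentration for full growth arrest is given as TGI.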

Experiments:
Experiment in all cases: NCI-60 cell line screen, 48 h
CAKI-1 renal = tested on: CAKI-1 renal
SK-MEL-5 melanoma = tested on: SK-MEL-5 melanoma
OVCAR-5 ovarian = tested on: OVCAR-5 ovarian
MALME-3M melanoma = tested on: MALME-3M melanoma
ACHN renal = tested on: ACHN renal
TK-10 renal = tested on: TK-10 renal
A549 NSCLC = tested on: A549 NSCLC
SW-620 colon = tested on: SW-620 colon
SK-MEL-28 melanoma = tested on: SK-MEL-28 melanoma
A498 renal = tested on: A498 renal
LOX IMVI melanoma = tested on: LOX IMVI melanoma
HOP-62 NSCLC = tested on: HOP-62 NSCLC
SNB-75 CNS = tested on: SNB-75 CNS
HT29 colon = tested on: HT29 colon
RXF 393 renal = tested on: RXF 393 renal
SK-MEL-2 melanoma = tested on: SK-MEL-2 melanoma
BT-549 breast = tested on: BT-549 breast
HCT-116 colon = tested on: HCT-116 colon
EKVX NSCLC = tested on: EKVX NSCLC
UACC-62 melanoma = tested on: UACC-62 melanoma
HCC-2998 colon = tested on: HCC-2998 colon
SK-OV-3 ovarian = tested on: SK-OV-3 ovarian
K-562 leukemia = tested on: K-562 leukemia
OVCAR-3 ovarian = tested on: OVCAR-3 ovarian
SN12C renal = tested on: SN12C renal
HL-60(TB) leukemia = tested on: HL-60(TB) leukemia
U251 CNS = tested on: U251 CNS
UO-31 renal = tested on: UO-31 renal
NCI-H460 lung = tested on: NCI-H460 lung
HS 578T breast = tested on: HS 578T breast
SF-539 CNS = tested on: SF-539 CNS
MOLT-4 leukemia = tested on: MOLT-4 leukemia
RPMI-8226 leukemia = tested on: RPMI-8226 leukemia
SF-268 CNS = tested on: SF-268 CNS
NCI/ADR-RES ovarian = tested on: NCI/ADR-RES ovarian
SF-295 CNS = tested on: SF-295 CNS
IGROV1 ovarian = tested on: IGROV1 ovarian
MDA-MB-231 breast = tested on: MDA-MB-231 breast
OVCAR-4 ovarian = tested on: OVCAR-4 ovarian
OVCAR-8 ovarian = tested on: OVCAR-8 ovarian
SNB-19 CNS = tested on: SNB-19 CNS
COLO 205 colon = tested on: COLO 205 colon
HCT-15 colon = tested on: HCT-15 colon
PC-3 prostate = tested on: PC-3 prostate
KM12 colon = tested on: KM12 colon
MCF7 breast = tested on: MCF7 breast
DU-145 prostate = tested on: DU-145 prostate
NCI-H522 lung = tested on: NCI-H522 lung
T-47D breast = tested on: T-47D breast
786-0 renal = tested on: 786-0 renal
M14 melanoma = tested on: M14 melanoma
MDA-MB-435 = tested on: MDA-MB-435
SR leukemia = tested on: SR leukemia
HOP-92 NSCLC = tested on: HOP-92 NSCLC
NCI-H226 lung = tested on: NCI-H226 lung
UACC-257 melanoma = tested on: UACC-257 melanoma
NCI-H23 lung = tested on: NCI-H23 lung

## O=C1NC(=O)C(c2cccc([N+](=O)[O-])c2)=C1Nc1cc(Cl)c(O)c(Cl)c1
CAKI-1 renal
  GI50: > 20.9 µM
  TGI: > 25 µM
SK-MEL-5 melanoma
  GI50: 24.4 µM
  TGI: > 25 µM
OVCAR-5 ovarian
  GI50: > 25 µM
  TGI: > 25 µM
MALME-3M melanoma
  GI50: > 25 µM
  TGI: > 25 µM
ACHN renal
  GI50: > 25 µM
  TGI: > 25 µM
TK-10 renal
  GI50: > 17.7 µM
  TGI: > 25 µM
A549 NSCLC
  GI50: > 25 µM
  TGI: > 25 µM
SW-620 colon
  GI50: > 25 µM
  TGI: > 25 µM
SK-MEL-28 melanoma
  GI50: > 25 µM
  TGI: > 25 µM
A498 renal
  GI50: > 11.5 µM
  TGI: > 25 µM
LOX IMVI melanoma
  GI50: 24.3 µM
  TGI: > 25 µM
HOP-62 NSCLC
  GI50: > 25 µM
  TGI: > 25 µM
SNB-75 CNS
  GI50: 10.7 µM
  TGI: > 25 µM
HT29 colon
  GI50: > 25 µM
  TGI: > 25 µM
RXF 393 renal
  GI50: > 21.7 µM
  TGI: > 25 µM
SK-MEL-2 melanoma
  GI50: > 19.8 µM
  TGI: > 25 µM
BT-549 breast
  GI50: > 16.2 µM
  TGI: > 25 µM
HCT-116 colon
  GI50: > 25 µM
  TGI: > 25 µM
EKVX NSCLC
  GI50: > 25 µM
  TGI: > 25 µM
UACC-62 melanoma
  GI50: > 20.8 µM
  TGI: > 25 µM
HCC-2998 colon
  GI50: > 25 µM
  TGI: > 25 µM
SK-OV-3 ovarian
  GI50: 12 µM
  TGI: > 25 µM
K-562 leukemia
  GI50: > 25 µM
  TGI: > 25 µM
OVCAR-3 ovarian
  GI50: > 17.9 µM
  TGI: > 25 µM
SN12C renal
  GI50: > 25 µM
  TGI: > 25 µM
HL-60(TB) leukemia
  GI50: > 25 µM
  TGI: > 25 µM
U251 CNS
  GI50: > 25 µM
  TGI: > 25 µM
UO-31 renal
  GI50: > 17.6 µM
  TGI: > 25 µM
NCI-H460 lung
  GI50: > 23.4 µM
  TGI: > 25 µM
HS 578T breast
  GI50: 7.03 µM
  TGI: > 25 µM
SF-539 CNS
  GI50: > 25 µM
  TGI: > 25 µM
MOLT-4 leukemia
  GI50: > 25 µM
  TGI: > 25 µM
RPMI-8226 leukemia
  GI50: > 25 µM
  TGI: > 25 µM
SF-268 CNS
  GI50: > 25 µM
  TGI: > 25 µM
NCI/ADR-RES ovarian
  GI50: > 25 µM
  TGI: > 25 µM
SF-295 CNS
  GI50: > 16.3 µM
  TGI: > 25 µM
IGROV1 ovarian
  GI50: > 25 µM
  TGI: > 25 µM
MDA-MB-231 breast
  GI50: > 25 µM
  TGI: > 25 µM
OVCAR-4 ovarian
  GI50: > 25 µM
  TGI: > 25 µM
OVCAR-8 ovarian
  GI50: > 25 µM
  TGI: > 25 µM
SNB-19 CNS
  GI50: > 25 µM
  TGI: > 25 µM
COLO 205 colon
  GI50: > 25 µM
  TGI: > 25 µM
HCT-15 colon
  GI50: > 25 µM
  TGI: > 25 µM
PC-3 prostate
  GI50: > 25 µM
  TGI: > 25 µM
KM12 colon
  GI50: > 25 µM
  TGI: > 25 µM
MCF7 breast
  GI50: > 25 µM
  TGI: > 25 µM
DU-145 prostate
  GI50: > 25 µM
  TGI: > 25 µM
NCI-H522 lung
  GI50: > 16.5 µM
  TGI: > 25 µM
T-47D breast
  GI50: > 25 µM
  TGI: > 25 µM
786-0 renal
  GI50: > 23.3 µM
  TGI: > 25 µM
M14 melanoma
  GI50: > 25 µM
  TGI: > 25 µM
MDA-MB-435
  GI50: > 25 µM
  TGI: > 25 µM

## COC(=O)c1ccccc1Nc1nc(-c2cccs2)nc2cc(OC)c(OC)cc12
CAKI-1 renal
  TGI: > 100 µM
SK-MEL-5 melanoma
  TGI: > 100 µM
OVCAR-5 ovarian
  TGI: > 100 µM
MALME-3M melanoma
  TGI: > 100 µM
ACHN renal
  TGI: > 100 µM
TK-10 renal
  TGI: 70.2 µM
A549 NSCLC
  TGI: > 100 µM
SW-620 colon
  TGI: > 100 µM
SK-MEL-28 melanoma
  TGI: > 100 µM
A498 renal
  TGI: > 100 µM
LOX IMVI melanoma
  TGI: > 100 µM
HOP-62 NSCLC
  TGI: 42.1 µM
SNB-75 CNS
  TGI: > 100 µM
HT29 colon
  TGI: > 100 µM
RXF 393 renal
  TGI: > 100 µM
SK-MEL-2 melanoma
  TGI: > 100 µM
BT-549 breast
  TGI: > 100 µM
HCT-116 colon
  TGI: > 100 µM
EKVX NSCLC
  TGI: > 100 µM
UACC-62 melanoma
  TGI: > 100 µM
SR leukemia
  TGI: > 100 µM
SK-OV-3 ovarian
  TGI: > 100 µM
K-562 leukemia
  TGI: > 100 µM
OVCAR-3 ovarian
  TGI: 72.2 µM
SN12C renal
  TGI: > 100 µM
HL-60(TB) leukemia
  TGI: > 100 µM
U251 CNS
  TGI: > 100 µM
UO-31 renal
  TGI: > 100 µM
NCI-H460 lung
  TGI: > 100 µM
HS 578T breast
  TGI: > 100 µM
SF-539 CNS
  TGI: 85.9 µM
MOLT-4 leukemia
  TGI: > 100 µM
RPMI-8226 leukemia
  TGI: > 100 µM
SF-268 CNS
  TGI: > 100 µM
NCI/ADR-RES ovarian
  TGI: > 100 µM
SF-295 CNS
  TGI: 97.7 µM
IGROV1 ovarian
  TGI: 74.7 µM
MDA-MB-231 breast
  TGI: > 100 µM
OVCAR-4 ovarian
  TGI: > 100 µM
OVCAR-8 ovarian
  TGI: > 100 µM
SNB-19 CNS
  TGI: > 100 µM
COLO 205 colon
  TGI: > 100 µM
HCT-15 colon
  TGI: > 100 µM
PC-3 prostate
  TGI: > 100 µM
KM12 colon
  TGI: > 100 µM
MCF7 breast
  TGI: > 100 µM
DU-145 prostate
  TGI: > 100 µM
NCI-H522 lung
  TGI: > 100 µM
T-47D breast
  TGI: > 100 µM
786-0 renal
  TGI: > 100 µM
HOP-92 NSCLC
  TGI: > 100 µM
M14 melanoma
  TGI: > 100 µM
MDA-MB-435
  TGI: > 100 µM
NCI-H226 lung
  TGI: 89.4 µM
UACC-257 melanoma
  TGI: > 100 µM
NCI-H23 lung
  TGI: > 100 µM
